Patent US10125139B2, “Pesticidally active polycyclic derivatives with sulfur substituted five-membered ring heterocycles” (Syngenta Participations AG, priority 2015, dated 2018)

Key:
Format in all cases: in vivo
[1] = system: Diabrotica balteata (Corn Root Worm); test: Example B2: Diabrotica balteata, sprayed maize sprouts, L2 larvae; settings: for percent effect (mortality or growth inhibition) at 200 ppm: Diabrotica balteata, 96 h, application rate of 200 ppm, 4 days after infestation, L2 larvae, read-out: effect in at least one of the two categories (mortality or growth inhibition)
Procedure: Example B2: Diabrotica balteata (Corn Root Worm)
Maize sprouts placed onto an agar layer in 24-well microtiter plates were treated with aqueous test solutions prepared from 10,000 ppm DMSO stock solutions by spraying. After drying, the plates were infested with L2 larvae (6 to 10 per well). The samples were assessed for mortality and growth inhibition in comparison to untreated samples 4 days after infestation. The following compounds gave an effect of at least 80% in at least one of the two categories (mortality or growth inhibition) at an application rate of 200 ppm:
(§1) Insecticidal action against Diabrotica balteata (Corn root worm), Plutella xylostella (Diamond black moth), and Spodoptera littoralis (Egyptian cotton leaf worm). The tests were carried out as described in biological examples B2, B8 and B9, respectively, with the larval feeding/contact activity (mortality only) being reported as Breakpoint (BP80) values in parts per million (i.e. the lowest concentration which gives 80% larval mortality).

[2] = system: Plutella xylostella (Diamond Back Moth); test: Example B8: Plutella xylostella, artificial diet, L2 larvae; settings: for percent effect (mortality or growth inhibition) at 200 ppm: Plutella xylostella, 120 h, application rate of 200 ppm, 5 days after infestation, L2 larvae, read-out: effect in at least one of the two categories (mortality or growth inhibition)
Procedure: Example B8: Plutella xylostella (Diamond Back Moth)
24-well microtiter plates with artificial diet were treated with aqueous test solutions prepared from 10,000 ppm DMSO stock solutions by pipetting. After drying, the plates were infested with L2 larvae (10 to 15 per well). The samples were assessed for mortality and growth inhibition in comparison to untreated samples 5 days after infestation. The following compounds gave an effect of at least 80% in at least one of the two categories (mortality or growth inhibition) at an application rate of 200 ppm:
as §1

[3] = system: Myzus persicae (Green Peach Aphid); test: Example B5: Myzus persicae feeding/contact activity, sunflower leaf discs; settings: foliar, 144 h, application rate of 200 ppm, 6 days after infestation
Procedure: Example B5: Myzus persicae (Green Peach Aphid): Feeding/Contact Activity
Sunflower leaf discs were placed onto agar in a 24-well microtiter plate and sprayed with aqueous test solutions prepared from 10,000 ppm DMSO stock solutions. After drying, the leaf discs were infested with an aphid population of mixed ages. The samples were assessed for mortality 6 days after infestation.

[4] = system: Euschistus heros (Neotropical Brown Stink Bug); test: Example B3: Euschistus heros, sprayed soybean leaves, N2 nymphs; settings: 120 h, application rate of 200 ppm, 5 days after infestation, read-out: effect in at least one of the two categories (mortality or growth inhibition)
Procedure: Example B3: Euschistus heros (Neotropical Brown Stink Bug)
Soybean leaves on agar in 24-well microtiter plates were sprayed with aqueous test solutions prepared from 10,000 ppm DMSO stock solutions. After drying the leaves were infested with N2 nymphs. The samples were assessed for mortality and growth inhibition in comparison to untreated samples 5 days after infestation. The following compounds gave an effect of at least 80% in at least one of the two categories (mortality or growth inhibition) at an application rate of 200 ppm: […]

[5] = system: Spodoptera littoralis (Egyptian Cotton Leaf Worm); test: Example B9: Spodoptera littoralis, cotton leaf discs, L1 larvae; settings: for percent control (mortality, anti-feedant effect or growth inhibition) at 200 ppm: Spodoptera littoralis, foliar, 72 h, application rate of 200 ppm, 3 days after infestation, L1 larvae
Procedure: Example B9: Spodoptera littoralis (Egyptian Cotton Leaf Worm)
Cotton leaf discs were placed onto agar in 24-well microtiter plates and sprayed with aqueous test solutions prepared from 10,000 ppm DMSO stock solutions. After drying the leaf discs were infested with five L1 larvae. The samples were assessed for mortality, anti-feeding effect, and growth inhibition in comparison to untreated samples 3 days after infestation. Control of Spodoptera littoralis by a test sample is given when at least one of the categories mortality, anti-feedant effect, and growth inhibition is higher than the untreated sample.
as §1

| SMILES | percent effect (mortality or growth inhibition) at 200 ppm [1] [%] | percent effect (mortality or growth inhibition) at 200 ppm [2] [%] | mortality at 200 ppm [3] [%] | percent effect (mortality or growth inhibition) at 200 ppm [4] [%] | percent control (mortality, anti-feedant effect or growth inhibition) at 200 ppm [5] [%] | BP80 (Breakpoint, lowest concentration which gives 80% larval mortality) Diabrotica balteata ([1]; larval feeding/contact activity, mortality only, test as in B2) [ppm] | BP80 (Breakpoint, lowest concentration which gives 80% larval mortality) Plutella xylostella ([2]; larval feeding/contact activity, mortality only, test as in B8) [ppm] | BP80 (Breakpoint, lowest concentration which gives 80% larval mortality) Spodoptera littoralis ([5]; larval feeding/contact activity, mortality only, test as in B9) [ppm] |
| --- | --- | --- | --- | --- | --- | --- | --- | --- |
| CCS(=O)(=O)c1sc(Br)nc1-c1nc2cc(C(F)(F)F)ncc2n1C [Example I-9, 2-bromo-5-ethylsulfonyl-4-[3-methyl-6-(trifluoromethyl)imidazo[4,5-c]pyridin-2-yl]thiazole] | ≥ 80 |  |  |  |  |  |  |  |
| CCS(=O)(=O)c1cc(-n2ccc(C(F)(F)F)n2)sc1-c1nc2cc(C(F)(F)F)nnc2n1C [Example P-12, 6-[3-ethylsulfonyl-5-[3-(trifluoromethyl)pyrazol-1-yl]-2-thienyl]-7-methyl-3-(trifluoromethyl)imidazo[4,5-c]pyridazine] | ≥ 80 | ≥ 80 | ≥ 80 | ≥ 80 | ≥ 80 |  |  |  |
| CCS(=O)(=O)c1sc(-c2ccc(Cl)cc2)nc1-c1nc2cc(C(F)(F)F)ncc2n1C [Example P-19, 2-(4-chlorophenyl)-5-ethylsulfonyl-4-[3-methyl-6-(trifluoromethyl)imidazo[4,5-c]pyridin-2-yl]thiazole] | ≥ 80 |  |  |  | ≥ 80 |  |  |  |
| CCS(=O)(=O)c1sc(-n2ccc(C(F)(F)F)n2)nc1-c1nc2cc(C(F)(F)F)ncc2n1C [Example P-20, 5-ethylsulfonyl-4-[3-methyl-6-(trifluoromethyl)imidazo[4,5-c]pyridin-2-yl]-2-[3-(trifluoromethyl)pyrazol-1-yl]thiazole] | ≥ 80 | ≥ 80 |  | ≥ 80 | ≥ 80 |  |  |  |
| CCS(=O)(=O)c1cc(C(F)(F)F)sc1-c1nc2cc(C(F)(F)F)ncc2n1C [Example V14.01, reference compound] |  |  |  |  |  | 50 | 50 | 50 |
| CCS(=O)(=O)c1cc(I)sc1-c1nc2cc(SC(F)(F)F)ncc2n1C [Example I-8, 2-(3-ethylsulfonyl-5-iodo-2-thienyl)-3-methyl-6-(trifluoromethylsulfanyl)imidazo[4,5-c]pyridine] | ≥ 80 | ≥ 80 | ≥ 80 | ≥ 80 | ≥ 80 |  |  |  |
| CCS(=O)(=O)c1cc(-n2ccc(C(F)(F)F)n2)sc1-c1nc2cc(C(F)(F)F)ncc2n1C [Example P-2, 2-[3-ethylsulfonyl-5-[3-(trifluoromethyl)pyrazol-1-yl]-2-thienyl]-3-methyl-6-(trifluoromethyl)imidazo[4,5-c]pyridine] | ≥ 80 | ≥ 80 | ≥ 80 | ≥ 80 | ≥ 80 |  |  |  |
| CCSc1sc(-n2ccc(C(F)(F)F)n2)nc1-c1nc2cc(C(F)(F)F)ncc2n1C [Example P-21, 5-ethylsulfanyl-4-[3-methyl-6-(trifluoromethyl)imidazo[4,5-c]pyridin-2-yl]-2-[3-(trifluoromethyl)pyrazol-1-yl]thiazole] | ≥ 80 |  |  |  |  |  |  |  |
| CCSc1nc(Br)sc1-c1nc2cc(C(F)(F)F)ncc2n1C [Example I-5, 2-bromo-4-ethylsulfanyl-5-[3-methyl-6-(trifluoromethyl)imidazo[4,5-c]pyridin-2-yl]thiazole] |  |  | ≥ 80 |  |  |  |  |  |
| CCSc1cc(-n2ccc(C(F)(F)F)n2)sc1-c1nc2cc(C(F)(F)F)ncc2n1C [Example P-3, 2-[3-ethylsulfanyl-5-[3-(trifluoromethyl)pyrazol-1-yl]-2-thienyl]-3-methyl-6-(trifluoromethyl)imidazo[4,5-c]pyridine] | ≥ 80 | ≥ 80 |  |  |  |  |  |  |
| CCS(=O)(=O)c1c(-c2nc3cc(C(F)(F)F)ncc3n2C)sc(-c2ccc(Cl)cc2)c1Cl [Example P-8, 2-[4-chloro-5-(4-chlorophenyl)-3-ethylsulfonyl-2-thienyl]-3-methyl-6-(trifluoromethyl)imidazo[4,5-c]pyridine] | ≥ 80 | ≥ 80 |  |  | ≥ 80 |  |  |  |
| CCS(=O)(=O)c1sc(-c2ncccn2)nc1-c1nc2cc(C(F)(F)F)ncc2n1C [Example P-23, 5-ethylsulfonyl-4-[3-methyl-6-(trifluoromethyl)imidazo[4,5-c]pyridin-2-yl]-2-pyrimidin-2-yl-thiazole] | ≥ 80 | ≥ 80 |  |  | ≥ 80 |  |  |  |
| CCS(=O)(=O)c1sc(-c2ccc(Cl)cc2)nc1-c1nc2cc(SC(F)(F)F)ncc2n1C [Example P-24] |  | ≥ 80 |  |  | ≥ 80 |  |  |  |
| CCS(=O)(=O)c1cc(-c2ncccn2)sc1-c1nc2cc(SC(F)(F)F)ncc2n1C [Example P-16, 2-(3-ethylsulfonyl-5-pyrimidin-2-yl-2-thienyl)-3-methyl-6-(trifluoromethylsulfanyl)imidazo[4,5-c]pyridine] | ≥ 80 | ≥ 80 |  | ≥ 80 | ≥ 80 |  |  |  |
| CCS(=O)(=O)c1nc(Br)sc1-c1nc2cc(SC(F)(F)F)ncc2n1C [Example I-11] | ≥ 80 |  |  |  |  |  |  |  |
| CCS(=O)(=O)c1sc(-c2cc(F)cc(F)c2)nc1-c1nc2cc(SC(F)(F)F)ncc2n1C [Example P-26] | ≥ 80 | ≥ 80 |  |  | ≥ 80 |  |  |  |
| CCSc1sc(Br)nc1-c1nc2cc(SC(F)(F)F)ncc2n1C [Example I-10] |  | ≥ 80 |  |  |  |  |  |  |
| CCS(=O)(=O)c1sc(C2CC2)nc1-c1nc2cc(C(F)(F)F)ncc2n1C [Example P-22, 2-cyclopropyl-5-ethylsulfonyl-4-[3-methyl-6-(trifluoromethyl)imidazo[4,5-c]pyridin-2-yl]thiazole] | ≥ 80 | ≥ 80 | ≥ 80 | ≥ 80 | ≥ 80 |  |  |  |
| CCSc1c(-c2nc3cc(C(F)(F)F)ncc3n2C)sc(-c2ccc(Cl)cc2)c1Cl [Example P-7, 2-[4-chloro-5-(4-chlorophenyl)-3-ethylsulfanyl-2-thienyl]-3-methyl-6-(trifluoromethyl)imidazo[4,5-c]pyridine] | ≥ 80 | ≥ 80 |  | ≥ 80 | ≥ 80 |  |  |  |
